Measurements published in patent US8106019B2, “CHEC-7 a novel sPLA2 inhibitor” (Philadelphia Health & Education Corporation, priority 2002, dated 2012).

Columns and labels:
[1] = test system: neural cells
[2] = test system: human plasma PLA2; details: 25 nM peptide
[3] = test system: plasma sPLA2; details: LPS 4 mg/kg s.c.; peptide 0.4 mg/kg s.c. 60 min later
[4] = test system: PLA2; details: cited from earlier work

With CAHAQAESC the “survival of neural cells” value [1] was “promotes survival of neural cells”.

In the case of CHEASQC [CHEC-7], the “dependence of inhibition on substrate concentration” value [2] is reported as “less effective at the lowest substrate concentrations”, the “ex vivo inhibition of human plasma PLA2” value ([2]; 25% pooled ALS plasma, PED6 substrate) is reported as “inhibition” and the “LPS-induced increases in sPLA2 activity in plasma” value [3] is reported as “effective in attenuating”. For the same substance, the “effect on LPS-induced plasma sPLA2 compared with CHEC-9” value [3] was “greater and more sustained effect”.

For PMSF, the PLA2 activity [4] is given as “inhibits PLA2 activity”.
